Measurements reported in patent publication US8952024B2, “Herbicidal pyrimidone derivatives” (E I du Pont de Nemours and Company, priority 2009, dated 2015).

Assays:
Experiment in all cases: Test D pre-/postemergence plant response
Type in all cases: in vivo
[1] = system: dallisgrass (Paspalum dilatatum)
In short: (§1)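 Both preemergence and postemergence treatments were made at the same time, with the compound in a non-phytotoxic, surfactant-containing solvent mixture. Plants grew in a greenhouse for 14–21 days before visual evaluation, scored from 0 (no effect) to 100 (complete control).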

[2] = system: black mustard (Brassica nigra)
In short: as §1

[3] = system: purslane (common purslane, Portulaca oleracea)
In short: as §1

[4] = system: guineagrass (Panicum maximum)
In short: as §1

[5] = system: kochia (Kochia scoparia)
In short: as §1

[6] = system: Russian thistle (Salsola kali)
In short: as §1

[7] = system: sowthistle (common sowthistle, Sonchus oleraceous)
In short: as §1

[8] = system: morningglory (pitted morningglory, Ipomoea lacunosa)
In short: as §1

[9] = system: chickweed (common chickweed, Stellaria media); conditions: Postemergence, scale 0 to 100 (0 no effect, 100 complete control)
In short: as §1

[10] = system: Surinam grass (Brachiaria decumbens)
In short: as §1

[11] = system: itchgrass (Rottboellia cochinchinensis)
In short: as §1

[12] = system: large crabgrass (Digitaria sanguinalis)
In short: as §1

[13] = system: nutsedge (purple nutsedge, Cyperus rotundus)
In short: as §1

[14] = system: spanishneedles (Bidens bipinnata)
In short: as §1

[15] = system: barnyardgrass (Echinochloa crus-galli)
In short: as §1

[16] = system: signalgrass (broadleaf signalgrass, Brachiaria platyphylla)
In short: as §1

[17] = Postemergence, 125 g ai/ha, scale 0 to 100 (0 no effect, 100 complete control)
[18] = Postemergence, 250 g ai/ha, scale 0 to 100 (0 no effect, 100 complete control)
[19] = Postemergence, 62 g ai/ha, scale 0 to 100 (0 no effect, 100 complete control)
[20] = Postemergence, 31 g ai/ha, scale 0 to 100 (0 no effect, 100 complete control)
[21] = Postemergence, 16 g ai/ha, scale 0 to 100
[22] = Postemergence, 31 g ai/ha, scale 0 to 100
[23] = Preemergence, 16 g ai/ha, scale 0 to 100, 0 no effect, 100 complete control
[24] = Preemergence, 31 g ai/ha, scale 0 to 100 (0 no effect, 100 complete control)
[25] = Preemergence, 62 g ai/ha, scale 0 to 100
[26] = Preemergence, 125 g ai/ha, scale 0 to 100

CCCn1c(-c2ccccc2)ncc(C(=O)C2=C(O)C3CCC(C3)C2=O)c1=O (stereo not shown) [Compound 226]
30: Plant response rating, Dallisgrass [1, 17]
60: Plant response rating, Kochia [5, 19]
40: Plant response rating, Russian Thistle [6, 17] | Plant response rating, Signalgrass [16, 19]
90: Plant response rating, Surinam Grass [10, 17] | Plant response rating, Surinam Grass [10, 18] | Plant response rating, Itchgrass [11, 18]
35: Plant response rating, Dallisgrass [1, 18] | Plant response rating, Chickweed ([9]; 125 g ai/ha) | Plant response rating, Chickweed ([9]; 62 g ai/ha)
65: Plant response rating, Black Mustard [2, 20] | Plant response rating, Purslane [3, 17] | Plant response rating, Signalgrass [16, 17] | Plant response rating, Signalgrass [16, 18]
98: Plant response rating, Sowthistle [7, 17] | Plant response rating, Sowthistle [7, 18] | Plant response rating, Sowthistle [7, 19]
50: Plant response rating, Purslane [3, 19]
5: Plant response rating, Nutsedge, Purple [13, 18]
0: Plant response rating, Nutsedge, Purple [13, 17] | Plant response rating, Nutsedge, Purple [13, 19]
80: Plant response rating, Black Mustard [2, 17] | Plant response rating, Black Mustard [2, 19] | Plant response rating, Guineagrass [4, 17] | Plant response rating, Guineagrass [4, 18] | Plant response rating, Guineagrass [4, 19] | Plant response rating, Morningglory [8, 18] | Plant response rating, Spanishneedles [14, 18]
70: Plant response rating, Purslane [3, 18] | Plant response rating, Kochia [5, 17] | Plant response rating, Kochia [5, 18] | Plant response rating, Russian Thistle [6, 18] | Plant response rating, Morningglory [8, 17] | Plant response rating, Morningglory [8, 19] | Plant response rating, Surinam Grass [10, 19] | Plant response rating, Itchgrass [11, 17] | Plant response rating, Itchgrass [11, 19]
95: Plant response rating, Barnyardgrass [15, 17] | Plant response rating, Barnyardgrass [15, 18]
75: Plant response rating, Crabgrass, Large [12, 17] | Plant response rating, Crabgrass, Large [12, 19] | Plant response rating, Spanishneedles [14, 17] | Plant response rating, Spanishneedles [14, 19]
85: Plant response rating, Black Mustard [2, 18] | Plant response rating, Chickweed ([9]; 250 g ai/ha) | Plant response rating, Crabgrass, Large [12, 18] | Plant response rating, Barnyardgrass [15, 20] | Plant response rating, Barnyardgrass [15, 19]
20: Plant response rating, Dallisgrass [1, 19]

Cc1ccc(F)c(-n2c(-c3ccccc3)ncc(C(=O)C3=C(O)CCCC3=O)c2=O)c1 [Compound 51]
100: Plant response rating, Black Mustard [2, 17] | Plant response rating, Black Mustard [2, 26] | Plant response rating, Purslane [3, 26] | Plant response rating, Sowthistle [7, 17] | Plant response rating, Sowthistle [7, 19] | Plant response rating, Sowthistle [7, 26] | Plant response rating, Morningglory [8, 26]
25: Plant response rating, Crabgrass, Large [12, 21]
95: Plant response rating, Black Mustard [2, 20] | Plant response rating, Sowthistle [7, 21]
90: Plant response rating, Dallisgrass [1, 26] | Plant response rating, Surinam Grass [10, 23]
75: Plant response rating, Black Mustard [2, 25] | Plant response rating, Guineagrass [4, 26] | Plant response rating, Russian Thistle [6, 26] | Plant response rating, Sowthistle [7, 24]
35: Plant response rating, Purslane [3, 17] | Plant response rating, Purslane [3, 19] | Plant response rating, Crabgrass, Large [12, 22] | Plant response rating, Crabgrass, Large [12, 17] | Plant response rating, Crabgrass, Large [12, 19] | Plant response rating, Spanishneedles [14, 21] | Plant response rating, Signalgrass [16, 22]
5: Plant response rating, Kochia [5, 21] | Plant response rating, Kochia [5, 22] | Plant response rating, Kochia [5, 19] | Plant response rating, Crabgrass, Large [12, 24] | Plant response rating, Crabgrass, Large [12, 25] | Plant response rating, Crabgrass, Large [12, 26] | Plant response rating, Nutsedge, Purple [13, 25] | Plant response rating, Nutsedge, Purple [13, 26] | Plant response rating, Signalgrass [16, 21]
98: Plant response rating, Sowthistle [7, 22] | Plant response rating, Surinam Grass [10, 24] | Plant response rating, Spanishneedles [14, 26]
60: Plant response rating, Surinam Grass [10, 22] | Plant response rating, Spanishneedles [14, 19]
65: Plant response rating, Purslane [3, 25] | Plant response rating, Morningglory [8, 17] | Plant response rating, Barnyardgrass [15, 21]
15: Plant response rating, Nutsedge, Purple [13, 19]
0: Plant response rating, Dallisgrass [1, 23] | Plant response rating, Black Mustard [2, 23] | Plant response rating, Purslane [3, 23] | Plant response rating, Guineagrass [4, 23] | Plant response rating, Guineagrass [4, 24] | Plant response rating, Guineagrass [4, 25] | Plant response rating, Kochia [5, 23] | Plant response rating, Kochia [5, 25] | Plant response rating, Russian Thistle [6, 21] | Plant response rating, Morningglory [8, 21] | Plant response rating, Morningglory [8, 23] | Plant response rating, Morningglory [8, 24] | Plant response rating, Itchgrass [11, 21] | Plant response rating, Itchgrass [11, 23] | Plant response rating, Itchgrass [11, 24] | Plant response rating, Itchgrass [11, 25] | Plant response rating, Itchgrass [11, 26] | Plant response rating, Crabgrass, Large [12, 23] | Plant response rating, Nutsedge, Purple [13, 21] | Plant response rating, Nutsedge, Purple [13, 22] | Plant response rating, Nutsedge, Purple [13, 23] | Plant response rating, Nutsedge, Purple [13, 24] | Plant response rating, Spanishneedles [14, 23] | Plant response rating, Spanishneedles [14, 24] | Plant response rating, Barnyardgrass [15, 23] | Plant response rating, Barnyardgrass [15, 24] | Plant response rating, Barnyardgrass [15, 25] | Plant response rating, Signalgrass [16, 23] | Plant response rating, Signalgrass [16, 24]
10: Plant response rating, Dallisgrass [1, 24] | Plant response rating, Dallisgrass [1, 25] | Plant response rating, Purslane [3, 21] | Plant response rating, Barnyardgrass [15, 26] | Plant response rating, Signalgrass [16, 26]
30: Plant response rating, Dallisgrass [1, 19] | Plant response rating, Guineagrass [4, 22] | Plant response rating, Guineagrass [4, 19] | Plant response rating, Morningglory [8, 25]
70: Plant response rating, Dallisgrass [1, 17] | Plant response rating, Black Mustard [2, 21] | Plant response rating, Chickweed ([9]; 125 g ai/ha) | Plant response rating, Surinam Grass [10, 19] | Plant response rating, Spanishneedles [14, 17] | Plant response rating, Barnyardgrass [15, 20] | Plant response rating, Barnyardgrass [15, 17] | Plant response rating, Barnyardgrass [15, 19]
80: Plant response rating, Surinam Grass [10, 17] | Plant response rating, Itchgrass [11, 17]
40: Plant response rating, Sowthistle [7, 23] | Plant response rating, Itchgrass [11, 19]
20: Plant response rating, Dallisgrass [1, 21] | Plant response rating, Dallisgrass [1, 22] | Plant response rating, Purslane [3, 22] | Plant response rating, Guineagrass [4, 21] | Plant response rating, Kochia [5, 17] | Plant response rating, Morningglory [8, 22] | Plant response rating, Morningglory [8, 19] | Plant response rating, Itchgrass [11, 22] | Plant response rating, Nutsedge, Purple [13, 17]
50: Plant response rating, Black Mustard [2, 24] | Plant response rating, Purslane [3, 24] | Plant response rating, Guineagrass [4, 17] | Plant response rating, Kochia [5, 26] | Plant response rating, Surinam Grass [10, 21] | Plant response rating, Spanishneedles [14, 22] | Plant response rating, Signalgrass [16, 17] | Plant response rating, Signalgrass [16, 19]
